Measurements as given in patent US7442706B2, “Methods for treating sarcopenia with a growth hormone secretagogue” (priority 2006, dated 2008).

Experiments:
[1] = Body water (TBW by deuterium dilution, ECW by bromide dilution, ICW by difference); assay type: in vivo, human; conditions: 12 months; expressed per kg FFM
Procedure: Body Water. Total body water (TBW) was measured using the deuterium oxide (D2O) dilution technique ((8) and extracellular water (ECW) by bromide dilution (10). Intracellular water (ICW) was assessed as the difference between TBW and ECW. To determine the relative relationships of total-, extra- and intra-cellular water, each component (in kg) was expressed per kg of FFM at each time point.

quadriceps muscle = conditions: canines during remobilization; cited from earlier work
[2] = orally active; cited from earlier work
[3] = Monitoring for adverse effects, PSA, mammograms, pap smears, routine laboratory tests; assay type: in vivo, human
Procedure: Healthy men and women 60 years and older were eligible to participate. A schematic of the study design and details of subject inclusion/exclusion criteria, screening, enrollment, and attrition are shown in FIG. 1. Volunteers were carefully screened by medical history and physical examination to rule out underlying disease and extensive laboratory testing was performed before and frequently throughout the study. Participants were asked to maintain their typical diet and exercise throughout the study and to report any illnesses, medical procedures or side effects. Annual mammograms and pap smears were performed in women and levels of prostate-specific antigen (PSA) were monitored in men.
In each of the 2 years, volunteers were seen monthly the first 3 months and every 3 months thereafter for a physical examination, documentation of medications and vital signs, routine laboratory tests and detailed questioning about possible side effects. Fasting blood glucose and hemoglobin Alc (HBAlc) were monitored for possible changes with MK-677 treatment, since increased blood glucose had been observed in previous studies (11;15).

GH = conditions: healthy older men and women; 25 mg p.o. daily; cited from earlier work
[4] = Function tests and quality of life questionnaires; assay type: in vivo, human; conditions: year 1
Procedure: Quality of Life Assessments. Subjects completed 4 questionnaires to assess quality of life and general well-being: the 20-item Short Form Health Survey (SF-20); Beck Depression Inventory (BDI); Pittsburgh Sleep Quality Index (PSQI); and the Body Cathexis Scale (BCS).
Function. Function tests included walking 30 meters as quickly as possible, walking as far as possible in 6 minutes, descending and ascending 4 flights of stairs and rising and sitting 5 times from an armless chair with an 18″ seat height.
Correction for Height and Gender. All strength and function measurements were analyzed per kg of skeletal muscle (ASM). Baseline arm ASM and leg ASM were used for shoulder and knee strength, respectively; baseline TASM (sum of arms and legs) was used for the function tests.
With regard to the quality of life data, a Factor Analysis of the different scales of the questionnaires was performed to create an overall well-being factor (16). Initially, study subjects were used as their own internal controls and assessed if there was change over time in overall well being. Using the hierarchical linear modeling (HLM), a growth curve analysis was conducted, testing within-person linear and curvilinear change in overall well being over time.

[5] = Isokinetic muscle strength (Cybex II), knee and shoulder flexion and extension; assay type: in vivo, human; conditions: 12 months
Procedure: Isokinetic Muscle Strength. Concentric force during flexion and extension of the knee and shoulder were determined using an isokinetic dynamometer Cybex II (CSM, Inc., Boston, Mass.). (11) Six repetitions of maximal effort over 90 degrees at 60 degrees/second were performed with the mean of the last 5 repetitions computed by proprietary software. Total work (Newton metres) was calculated by multiplying the mean per repetition by 5. Correction for Height and Gender. All strength and function measurements were analyzed per kg of skeletal muscle (ASM). Baseline arm ASM and leg ASM were used for shoulder and knee strength, respectively; baseline TASM (sum of arms and legs) was used for the function tests.

[6] = T-score for total appendicular skeletal mass TASM/ht^2 (sarcopenia index); assay type: in vivo, human
Procedure: The primary outcome measures were the effects of increased GH and IGF-I on AVF and FFM; additional outcomes included body weight, fat mass, body water compartments, 24-h GH secretory dynamics, insulin sensitivity, quality of life and physical performance. Because gender and height influence total muscle mass, an index of relative muscle mass was calculated: total ASM from DXA was divided by height squared in meters (TASM (kg)/ht^2). To put changes in FFM in a clinical perspective, a t-score was computed for each individual, relating the TASM/ht^2 to those of gender-specific young adults (12). In accordance with Baumgartner et al., sarcopenia was defined as ≦2 SD below young, gender-specific reference populations (13; 14).

CC(C)(N)C(=O)N[C@H](COCc1ccccc1)C(=O)N1CCC2(CC1)CN(S(C)(=O)=O)c1ccccc12.CS(=O)(=O)O [MK-677, N-[1(R)-[(1,2-dihydro-1-methanesulfonylspiro[3H-indole-3,4′-piperidin]-1′-yl)carbonyl]-2-(phenylmethyloxy)ethyl]-2-amino-2-methylpropanamide methanesulfonate]
changes in TBW, ECW or ICW vs. placebo [1]: no significant changes | serum insulin-like growth factor-1 levels (quadriceps muscle): elevated levels of serum insulin-like growth factor-1 | size and strength of the quadriceps muscle (quadriceps muscle): increased the size and strength of the quadriceps muscle | diet-induced catabolism [2]: reverses diet-induced catabolism | serious side effects ([3]; daily treatment): without serious side effects | mammograms, pap smears, routine laboratory tests ([3]; during the 2 years of the study): no changes | time for appetite to return to normal ([3]; in about one-half the subjects): ≤ 3 months | PSA levels ([3]; men): declined significantly | transient muscle pain, subjects reporting ([3]; placebo 2/22): 14/43 | mild, transient edema, subjects reporting ([3]; placebo 6/22): 19/43 | increase in appetite, subjects reporting ([3]; placebo 8/22): 29/43 | Joint pain, subjects reporting ([3]; placebo 17/22): 25/43 | IGF-I and pulsatile GH release, previously reported (GH): enhanced IGF-I and pulsatile GH release into the young adult normal range | function or QoL [4]: did not result in changes | shoulder flexion total work vs. placebo [5]: trend for prevention of this decline | total work in knee extension or flexion or in shoulder extension, between groups [5]: no change | T-scores for TASM/ht^2 vs. placebo ([6]; 12 months): significantly increased | subjects with a decrease in t-score (TASM/ht^2) ([6]; end of year 1, 25 mg p.o. daily): 7 of 43
